US20250255848A1, “SUBSTITUTED 6,7-DIHYDRO-5H-BENZO[7]ANNULENE DERIVATIVES, PROCESSES FOR THEIR PREPARATION AND THERAPEUTIC USES THEREOF” (SANOFI, priority 2022, published 2025)

Target: ERα (Homo sapiens (Human), UniProt P03372)
Assay: Estrogen receptor degradation activity: breast cancer cell ERα in cell western assay
Type: cell-based
Conditions: MCF7 cells; for % Degradation At 0.3 μM: 4 hours, normalised to fulvestrant 0.1 μM and DMSO; for IC50: 4 hours post compound addition, concentration which degrades 50% of the estrogen receptor
Description: Said test involves measuring the in vitro degradation activity of the compounds of the Table 1a.
The measurements of the degradation activities were made using a breast cancer cell ERα in cell western assay as described hereunder.
MCF7 cells (ATCC) were seeded in 384 wells microplate (collagen coated) at a concentration of 10000 cells/30 μL per well in red phenol free MEM alpha medium (invitrogen) containing 5% charcoal dextran striped FBS. The following day, 9 points serial 1:5 dilution of each compound was added to the cells in 2.5 μL at final concentrations ranging from 0.3-0.0000018 μM (in table 2), or 0.1 μM for fulvestrant (using as positive control). At 4 hours post compound addition the cells were fixed by adding 25 μL of formalin (final concentration 5% formalin containing 0.1% triton) for 10 minutes at room temperature and then washed twice with PBS. Then, 50 μL of LI-COR blocking buffer containing 0.1% Triton was added to plate for 30 minutes at room temperature. LI-COR blocking buffer was removed and cells were incubated overnight at cold room with 50 μL anti-ER rabbit monoclonal antibody (Thermo scientific MA1-39540) diluted at 1:1000 in LI-COR blocking buffer containing 0.1% tween-20. Wells which were treated with blocking buffer but no antibody were used as background control. Wells were washed twice with PBS (0.1% tween-20) and incubated at 37° C. for 60 minutes in LI-COR (0.1% tween-20) containing goat anti-rabbit antibody Alexa 488 (1:1000) and Syto-64 a DNA dye (2 μM final concentration). Cells were then washed 3 times in PBS and scanned in ACUMEN explorer (TTP-Labtech). Integrated intensities in the green fluorescence and red fluorescence were measured to determine the levels of ERα and DNA respectively.
The degradation activity with respect to estrogen receptors in this test is given by the concentration which degrades 50% of the estrogen receptor (or IC50) in nM.
The % of ERα levels decrease were determined as follows: % inhibition=100*(1−(sample−fulvestrant:DMSO−fulvestrant)).

Sequence of ERα (P03372 whole entry): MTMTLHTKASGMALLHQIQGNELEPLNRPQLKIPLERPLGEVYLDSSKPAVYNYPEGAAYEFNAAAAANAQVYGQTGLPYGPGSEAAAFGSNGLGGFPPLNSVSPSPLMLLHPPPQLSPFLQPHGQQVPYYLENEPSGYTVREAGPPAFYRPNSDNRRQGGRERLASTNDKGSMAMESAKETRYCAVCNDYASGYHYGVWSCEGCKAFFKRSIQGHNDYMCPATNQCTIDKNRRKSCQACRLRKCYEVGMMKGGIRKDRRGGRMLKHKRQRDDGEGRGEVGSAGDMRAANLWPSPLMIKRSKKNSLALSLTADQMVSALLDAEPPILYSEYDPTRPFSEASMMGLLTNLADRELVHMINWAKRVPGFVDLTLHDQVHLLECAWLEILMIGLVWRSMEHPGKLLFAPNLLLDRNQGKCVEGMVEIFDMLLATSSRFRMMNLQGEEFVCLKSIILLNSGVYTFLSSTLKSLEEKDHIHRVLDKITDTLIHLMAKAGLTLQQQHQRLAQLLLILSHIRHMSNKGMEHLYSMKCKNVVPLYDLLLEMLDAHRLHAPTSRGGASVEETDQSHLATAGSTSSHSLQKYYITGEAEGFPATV

Row | SMILES | % Degradation At 0.3 μM [%] | IC50 [nM]
1 | COc1cc(C)c(C2=C(c3ccc(C=C4CN(CCCF)C4)cc3)c3ccc(C(=O)O)cc3CCC2)c(C)c1 [Compound 18, 9-(4-((1-(3-fluoropropyl)azetidin-3-ylidene)methyl)phenyl)-8-(4-methoxy-2,6-dimethylphenyl)-6,7-dihydro-5H-benzo[7]annulene-3-carboxylic acid] | 91 | 0.6
2 | CCc1ccc(C2=C(c3ccc(C=C4CN(CCCF)C4)cc3)c3ccc(C(=O)O)cc3CCC2)c(C(F)(F)F)c1 [Compound 19, 8-(4-ethyl-2-(trifluoromethyl)phenyl)-9-(4-((1-(3-fluoropropyl)azetidin-3-ylidene)methyl)phenyl)-6,7-dihydro-5H-benzo[7]annulene-3-carboxylic acid] | 92 | 0.2
3 | O=C(O)c1ccc2c(c1)CCCC(c1c(F)cccc1C(F)(F)F)=C2c1ccc(C=C2CN(CCCF)C2)cc1 [Compound 20, 8-(2-fluoro-6-(trifluoromethyl)phenyl)-9-(4-((1-(3-fluoropropyl)azetidin-3-ylidene)methyl)phenyl)-6,7-dihydro-5H-benzo[7]annulene-3-carboxylic acid] | 94 | 0.6
4 | Cc1cccc(Cl)c1C1=C(c2ccc(C=C3CN(CCCF)C3)cc2)c2ccc(C(=O)O)cc2CCC1 [Compound 21, 8-(2-chloro-6-methylphenyl)-9-(4-((1-(3-fluoropropyl)azetidin-3-ylidene)methyl)phenyl)-6,7-dihydro-5H-benzo[7]annulene-3-carboxylic acid] | 93 | 0.5
5 | COc1cccc(F)c1C1=C(c2ccc(C=C3CN(CCCF)C3)cc2)c2ccc(C(=O)O)cc2CCC1 [Compound 22, 8-(2-fluoro-6-methoxyphenyl)-9-(4-((1-(3-fluoropropyl)azetidin-3-ylidene)methyl)phenyl)-6,7-dihydro-5H-benzo[7]annulene-3-carboxylic acid] | 94 | 0.5
6 | COc1cccc(Cl)c1C1=C(c2ccc(C=C3CN(CCCF)C3)cc2)c2ccc(C(=O)O)cc2CCC1 [Compound 23, 8-(2-chloro-6-methoxyphenyl)-9-(4-((1-(3-fluoropropyl)azetidin-3-ylidene)methyl)phenyl)-6,7-dihydro-5H-benzo[7]annulene-3-carboxylic acid] | 91 | 0.4
7 | Cc1c(OC(F)(F)F)cccc1C1=C(c2ccc(C=C3CN(CCCF)C3)cc2)c2ccc(C(=O)O)cc2CCC1 [Compound 24, 9-(4-((1-(3-fluoropropyl)azetidin-3-ylidene)methyl)phenyl)-8-(2-methyl-3-(trifluoromethoxy)phenyl)-6,7-dihydro-5H-benzo[7]annulene-3-carboxylic acid] | 91 | 0.5
8 | CCc1cc(C(F)(F)F)ccc1C1=C(c2ccc(C=C3CN(CCCF)C3)cc2)c2ccc(C(=O)O)cc2CCC1 [Compound 25, 8-(2-ethyl-4-(trifluoromethyl)phenyl)-9-(4-((1-(3-fluoropropyl)azetidin-3-ylidene)methyl)phenyl)-6,7-dihydro-5H-benzo[7]annulene-3-carboxylic acid] | 91 | 0.4
9 | Cc1cccc(F)c1C1=C(c2ccc(C=C3CN(CCCF)C3)cc2)c2ccc(C(=O)O)cc2CCC1 [Compound 26, 8-(2-fluoro-6-methylphenyl)-9-(4-((1-(3-fluoropropyl)azetidin-3-ylidene)methyl)phenyl)-6,7-dihydro-5H-benzo[7]annulene-3-carboxylic acid] | 91 | 0.2
10 | Cc1cc(C2=C(c3ccc(C=C4CN(CCCF)C4)cc3)c3ccc(C(=O)O)cc3CCC2)c(C)cc1F [Compound 27, 8-(4-fluoro-2,5-dimethylphenyl)-9-(4-((1-(3-fluoropropyl)azetidin-3-ylidene)methyl)phenyl)-6,7-dihydro-5H-benzo[7]annulene-3-carboxylic acid] | 93 | 0.5
